From patent publication US9376395B2 (priority 2011, dated 2016)

What was measured:
Human NSCLC A549 cells = settings: 60 mg/kg i.v. day 1, 4, 8, 11, 18, 25; 10% HPβCD formulation; balb/c nu/nu mice
NCI-60 cell lines = experiment: NCI-60 cell line panel screening; type: cell-based, human; settings: vs Bendamustine

Cn1c(CCCC(=O)O)nc2cc(N(CCCl)CCCl)ccc21 [Bendamustine, reference compound] was tested, and the “Body weight” value (Human NSCLC A549 cells) was 28.6 g, the “T/C (%)” value (Human NSCLC A549 cells) was 71.9% and the “Tumor volume (mm3)” value (Human NSCLC A549 cells) was 1716.5 mm3. The “Tumor weight” value (Human NSCLC A549 cells) was 1.97 g.
For Cn1c(CCCCCCC(=O)NO)nc2cc(N(CCCl)CCCl)ccc21 [NL-101], the “fold more potent than Bendamustine in the NCI-60 cell lines” value (NCI-60 cell lines) was 25-100 fold, the “Body weight” value (Human NSCLC A549 cells) was 27.6 g and the “T/C (%)” value (Human NSCLC A549 cells) was 37.7%. For the same compound, the “Tumor volume (mm3)” value (Human NSCLC A549 cells) was 772.7 mm3 and the “Tumor weight” value (Human NSCLC A549 cells) was 0.88 g.
